# Laboratory results as given in ChEMBL document CHEMBL4483862, “Open-source discovery of chemical leads for next-generation chemoprotective antimalarials” (2018).
# Tested on: Plasmodium berghei
# Test: Luciferase/luciferin-expressing antifolate-resistant parasites were used to infect a culture of HepG2 cells that were pre-incubated with compounds. Infected hepatocytes emit light due to the luciferase reaction. Assay results are presented as the percent inhibition of light emission compared to control. […]
# Format: functional
# Details: sporozoite; for IC90: read-out: LUCIFERASE INFECTION ASSAY - IC90
# [1] = read-out: LUCIFERASE INFECTION ASSAY - IC50
Compound,IC90,IC50 [1],further results
COc1ccc2ccccc2c1/C=N/Nc1ncc(C(F)(F)F)cc1Cl,> 10 µM,,"IC50 (HEPG2TOX_HILL_SLOPE 1.11, HEPG2TOX_R_SQUARED 0.987, read-out: LUCIFERASE INFECTION ASSAY - IC50): > 10 µM"
CCN(CC)Cc1ccc(CNC(=O)c2oc3ccccc3c2CSc2nnc[nH]2)cc1,> 10 µM,2.48 µM,
COc1cncc(-c2cnc3c(Nc4cc(OC)c(OC)c(OC)c4)nccn23)c1,0.297 µM,,"IC50 (HEPG2TOX_HILL_SLOPE 0.708, HEPG2TOX_R_SQUARED 0.654, PBLUC_HILL_SLOPE 2.45, PBLUC_R_SQUARED 0.956, read-out: LUCIFERASE INFECTION ASSAY - IC50): 0.121 µM"
CC(C)(C)c1ccc(OC(=O)Nc2ccc(Cl)c(Cl)c2)c(C(C)(C)C)c1,> 8.37 µM,,"IC50 (FFLUC_HILL_SLOPE 3, FFLUC_R_SQUARED 0.639, PBLUC_HILL_SLOPE 0.845, PBLUC_R_SQUARED 0.14, read-out: LUCIFERASE INFECTION ASSAY - IC50): > 8.37 µM"
COc1ccc(NCC2(c3ccnc(-c4ccccc4Cl)c3)CC2)cc1OC,9.12 µM,,"IC50 (HEPG2TOX_HILL_SLOPE 3.27, HEPG2TOX_R_SQUARED 0.816, PBLUC_HILL_SLOPE 4.33, PBLUC_R_SQUARED 0.443, read-out: LUCIFERASE INFECTION ASSAY - IC50): 5.49 µM"
Nc1nccnc1C(=O)Nc1nnc(-c2cccc(Br)c2)[nH]1,> 10 µM,> 10 µM,
CC(=O)c1c(C)cc(C)c(CN2C(=O)CN(c3ccccc3)C2=O)c1C,> 10 µM,> 10 µM,
O=S(=O)(Nc1cc(C(F)(F)F)cc(C(F)(F)F)c1)c1cc(Cl)ccc1Cl,> 7.53 µM,,"IC50 (HEPG2TOX_HILL_SLOPE 2.59, HEPG2TOX_R_SQUARED 0.793, PBLUC_HILL_SLOPE 6.41, PBLUC_R_SQUARED 0.152, read-out: LUCIFERASE INFECTION ASSAY - IC50): 6.18 µM"
Cc1c(C#N)nn(-c2cccc(Cl)c2)c(=O)c1C#N,> 12.2 µM,> 12.2 µM,
COc1ccc(NC(=O)CN(C)c2nc(-c3cccnc3)nc3sc(C)c(C)c23)cc1,3.92 µM,,"IC50 (PBLUC_HILL_SLOPE 1.86E+03, PBLUC_R_SQUARED 0.436, read-out: LUCIFERASE INFECTION ASSAY - IC50): 3.92 µM"
C=CCNC(=O)CSc1nccc(-c2sc3sc(Br)c(C)c3c2C)n1,> 7.26 µM,,"IC50 (HEPG2TOX_HILL_SLOPE 7.83, HEPG2TOX_R_SQUARED 0.735, PBLUC_HILL_SLOPE 0.44, PBLUC_R_SQUARED 0.419, read-out: LUCIFERASE INFECTION ASSAY - IC50): 2.88 µM"
COCCN(Cc1nc(=O)c2ccccc2[nH]1)C(=O)c1cc(C(C)(C)C)cc(C(C)(C)C)c1O,> 10 µM,> 10 µM,
O=C(/C=N/Nc1ncc(C(F)(F)F)cc1Cl)c1ccccn1,> 10 µM,,"IC50 (PBLUC_HILL_SLOPE 3.06, PBLUC_R_SQUARED 0.0968, read-out: LUCIFERASE INFECTION ASSAY - IC50): 8.78 µM"
CCN(CC1COc2ccccc2O1)C(=O)c1ccccc1CSc1nc2nc(C)cc(C)n2n1 (stereo not given),> 10 µM,> 10 µM,
CC(=O)N1CCN(S(=O)(=O)c2cccc(C(=O)OCC(=O)c3ccc4c(c3)-c3ccccc3C4)c2)CC1,> 10 µM,> 10 µM,
OCc1ccc(-c2ccc3ncc(-c4cccc(CO)c4)n3n2)cc1,2.83 µM,,"IC50 (HEPG2TOX_HILL_SLOPE 2.34, HEPG2TOX_R_SQUARED 0.973, PBLUC_HILL_SLOPE 2.94, PBLUC_R_SQUARED 0.59, read-out: LUCIFERASE INFECTION ASSAY - IC50): 1.34 µM"
Cc1cc(-c2cc(C(=O)NCc3ccc(Cn4cncn4)cc3)c3cnn(C(C)C)c3n2)c(C)s1,> 10 µM,> 10 µM,
O=C(Nn1cnc2sc3c(c2c1=O)CCCC3)c1cc(Br)ccc1O,> 10 µM,,"IC50 (PBLUC_HILL_SLOPE 11.5, PBLUC_R_SQUARED 0.145, read-out: LUCIFERASE INFECTION ASSAY - IC50): 9.56 µM"
CC(NC(=O)CSc1nnc(-c2cccs2)[nH]1)c1ccc2c(c1)CCCC2 (stereo not given),> 10 µM,,"IC50 (HEPG2TOX_HILL_SLOPE 0.208, HEPG2TOX_R_SQUARED 0.204, PBLUC_HILL_SLOPE 1.17, PBLUC_R_SQUARED 0.355, read-out: LUCIFERASE INFECTION ASSAY - IC50): 7.84 µM"
O=S(=O)(c1ccccc1)c1nc(/C=C/c2ccccc2)oc1NCc1ccco1,> 10 µM,,"IC50 (PBLUC_HILL_SLOPE 2.89, PBLUC_R_SQUARED 0.0298, read-out: LUCIFERASE INFECTION ASSAY - IC50): 5.62 µM"
COc1cc(-c2ccnc3n[nH]c(-c4ccc(N(C)C)cc4)c23)cc(OC)c1OC,3.63 µM,,"IC50 (PBLUC_HILL_SLOPE 14.6, PBLUC_R_SQUARED 0.557, read-out: LUCIFERASE INFECTION ASSAY - IC50): 3.12 µM"
CCc1nc(N2CCN(C(=O)c3ccco3)CC2)c2ccc(Cl)cc2n1,> 8.9 µM,,"IC50 (PBLUC_HILL_SLOPE 3.74, PBLUC_R_SQUARED 0.373, read-out: LUCIFERASE INFECTION ASSAY - IC50): 6.91 µM"
COc1cc(-c2cnc3sc(NCC4CCOCC4)nn23)ccc1O,> 9.16 µM,> 9.16 µM,

Compound,IC90,IC50 [1],further results
COc1ccc(-c2cnc3cnc(-c4ccc(N5CCN(C)CC5)cc4)cn23)cc1,> 8.26 µM,,"IC50 (PBLUC_HILL_SLOPE 4.21, PBLUC_R_SQUARED 0.0945, read-out: LUCIFERASE INFECTION ASSAY - IC50): 6.36 µM"
CCCCn1nc(C)c(/C=C/C(=O)N(CC)CC(=O)NCc2ccc(F)cc2)c1Cl,> 10 µM,,"IC50 (HEPG2TOX_HILL_SLOPE 2.05, HEPG2TOX_R_SQUARED 0.946, PBLUC_HILL_SLOPE 2.58, PBLUC_R_SQUARED 0.346, read-out: LUCIFERASE INFECTION ASSAY - IC50): 6.71 µM"
Cc1ccc2c(c1)/C(=N\NC(=O)c1nc(Cl)c(Cl)c(N)c1Cl)C(=O)N2,> 10 µM,,"IC50 (FFLUC_HILL_SLOPE 3.8, FFLUC_R_SQUARED 0.785, read-out: LUCIFERASE INFECTION ASSAY - IC50): > 10 µM"
CCCSc1ccc2c3c(cccc13)C(=O)N(CCc1ccccn1)C2=O,> 8.77 µM,> 8.77 µM,
CCn1c(=S)[nH]c2cc(C(=O)N3CCN(C(c4ccc(F)cc4)c4ccc(F)cc4)CC3)ccc21,> 10 µM,> 10 µM,
COc1ccccc1CNC(=O)CSc1nnc(-c2ccccc2)c2ccccc12,> 10 µM,> 10 µM,
Cc1cc(Oc2ccc(C(F)(F)F)cc2N=CC(C#N)C#N)cc(C)c1Cl,> 8.42 µM,> 8.42 µM,
O=C(Nc1ncc(Cc2cccc(Cl)c2Cl)s1)c1ccc(-n2cncn2)nc1,> 10 µM,,"IC50 (FFLUC_HILL_SLOPE 10.4, FFLUC_R_SQUARED 0.281, HEPG2TOX_HILL_SLOPE 2.29, HEPG2TOX_R_SQUARED 0.935, PBLUC_HILL_SLOPE 1.7, PBLUC_R_SQUARED 0.542, read-out: LUCIFERASE INFECTION ASSAY - IC50): 3.51 µM"
Cn1ccc2cc(-c3cnc4cnc(-c5ccc(N)nc5)cn34)ccc21,5.78 µM,,"IC50 (HEPG2TOX_HILL_SLOPE 1.74, HEPG2TOX_R_SQUARED 0.96, PBLUC_HILL_SLOPE 2.26, PBLUC_R_SQUARED 0.858, read-out: LUCIFERASE INFECTION ASSAY - IC50): 2.18 µM"
Cc1cc(C)cc(C(O)c2nc(-c3cccc4ccccc34)c[nH]2)c1 (stereo not given),> 10 µM,,"IC50 (PBLUC_HILL_SLOPE 13.8, PBLUC_R_SQUARED 0.489, read-out: LUCIFERASE INFECTION ASSAY - IC50): 9.47 µM"
C/C(=N\NC(=O)c1ccc(OCC(=O)N2C(C)CCCC2C)cc1)c1ccc2ccccc2c1O (stereo not given),3.9 µM,,"IC50 (HEPG2TOX_HILL_SLOPE 2.27, HEPG2TOX_R_SQUARED 0.93, PBLUC_HILL_SLOPE 2.78, PBLUC_R_SQUARED 0.436, read-out: LUCIFERASE INFECTION ASSAY - IC50): 1.77 µM"
COc1ccc(Cn2nc(C(=O)NC3CCCC3)c3c2CCN(C(=O)c2cc4ccccc4o2)C3)cc1,> 6.62 µM,,"IC50 (PBLUC_HILL_SLOPE 3.73, PBLUC_R_SQUARED 0.19, read-out: LUCIFERASE INFECTION ASSAY - IC50): 4.5 µM"
O=S(=O)(c1ccc(Br)s1)N(c1ccc2c(c1)OC1(CCCC1)O2)S(=O)(=O)c1ccc(Br)s1,> 10 µM,4.98 µM,
Cc1ccc(NC(=O)COc2ccc3c(=O)c(-c4ccccc4)c(C)oc3c2)cc1[N+](=O)[O-],> 10 µM,> 10 µM,
CNC(=O)NC(=O)c1sc(SC)c(-c2ccon2)c1C,> 10.6 µM,> 10.6 µM,
Cc1ccc(C(=O)c2sc(Nc3ccc(F)cc3)c(-c3nnc(N4CCOCC4)n3-c3ccccc3)c2N)cc1C,> 10 µM,,"IC50 (HEPG2TOX_HILL_SLOPE 7.05, HEPG2TOX_R_SQUARED 0.741, PBLUC_HILL_SLOPE 9.57, PBLUC_R_SQUARED 0.198, read-out: LUCIFERASE INFECTION ASSAY - IC50): 8.84 µM"
COc1cc(NC(=O)c2sccc2Oc2ccccc2[N+](=O)[O-])c(Cl)cc1Cl,> 7.51 µM,> 7.51 µM,
CC(C)Cc1ccc(C(=O)CC(Sc2ccccc2N)c2cccc([N+](=O)[O-])c2)cc1 (stereo not given),2.86 µM,,"IC50 (FFLUC_HILL_SLOPE 39.9, FFLUC_R_SQUARED 0.525, PBLUC_HILL_SLOPE 1.28, PBLUC_R_SQUARED 0.727, read-out: LUCIFERASE INFECTION ASSAY - IC50): 0.511 µM"
CN(C)CCCn1c(SCC(=O)N2c3ccccc3Sc3ccccc32)nc2ccccc2c1=O,9.41 µM,,"IC50 (PBLUC_HILL_SLOPE 9.03, PBLUC_R_SQUARED 0.19, read-out: LUCIFERASE INFECTION ASSAY - IC50): 7.38 µM"
OC(c1ccc(Cl)cc1)c1nnc(Nc2cc(C(F)(F)F)ccc2F)s1 (stereo not given),> 10 µM,> 10 µM,
N#C/C(=C\c1sccc1Oc1ccccc1)S(=O)(=O)c1ccc(C(F)(F)F)cn1,> 7.56 µM,,"IC50 (FFLUC_HILL_SLOPE 0.259, FFLUC_R_SQUARED 0.0664, read-out: LUCIFERASE INFECTION ASSAY - IC50): > 7.56 µM"
O=C(NCc1ccc(C(F)(F)F)cc1)c1cc(C(F)(F)F)cc(C(F)(F)F)c1,> 7.95 µM,> 7.95 µM,
